Test results published in US9901081B2, “Transgenic mouse for determining the role of senescent cells in cancer” (Buck Institute for Research on Aging, priority 2012, dated 2018).

Assays:
[1] = tested on: K-Ras induced lung tumors; assay: K-Ras mediated lung tumor multiplicity in INK-ATTAC:K-RasLA1 mice; type: in vivo, mouse; set-up: dose or concentration left out as unconfirmed; settings: INK-ATTAC3:K-RasLA1 and INK-ATTAC5:K-RasLA1 mice; from three weeks of age; twenty one days after treatment; FIG. 4
Text: Briefly, INK-ATTAC (p16^Ink4a apoptosis through targeted activation of caspase) transgenic mice have an FK506-binding protein (FKBP)-caspase 8 (Casp8) fusion polypeptide under the control of the p16^Ink4a promoter (see FIG. 5 providing a vector sequence for the transgene and FIG. 6 providing sequences for components of the transgene including the promoter sequence). In the presence of AP20187, a synthetic drug that induces dimerization of a membrane bound myristoylated FKBP-Casp8 fusion protein, senescent cells specifically expressing the FKBP-Casp8 fusion protein via the p16^Ink4a promoter undergo programmed cell death (apoptosis) (see, e.g., Baker, Nature, supra, FIG. 1 therein). Two founder lines (INK-ATTAC^3 and INK-ATTAC^5) were each bred with the K-rasLA1 tumor model. […]
Two INK-ATTAC:K-RasLA1 were produced (one for INK-ATTAC line 3 and one for line 5). […] Twenty one days after treatment, the mice were sacrificed and tumor multiplicity in lungs was measured. […] In addition, metastasis and overall survival will be monitored after tumor induction in the presence or absence of p16-positive cells.

B16 mouse melanoma cells [2] = assay: Subcutaneous B16 melanoma growth in doxorubicin-treated p16-3MR mice; type: in vivo; settings: for tumor growth / primary tumors (B16 bioluminescence) / tumor diameters (tumor sizes): then vehicle or GCV, twelve days after B16 injection; for tumor growth / primary tumors (B16 bioluminescence): FIG. 11; for tumor diameters (tumor sizes): FIG. 12
Experimental: (§1) Briefly, p16-3MR transgenic mice were treated with vehicle (ctrl) or 10 mg/kg doxorubicin. Seven days after doxorubicin treatment, mice were treated daily with GCV (25 mg/kg) for 7 days or vehicle only. 3 days after the last GCV treatment, 4×10^5 B16 mouse melanoma cells were injected subcutaneously into the p16-3MR transgenic mice, and mice were sacrificed after 12 days for analysis.

p16INK4a and mRFP mRNAs = assay: Senescent cell biomarkers in skin biopsies of doxorubicin-treated p16-3MR mice; type: in vivo, mouse; settings: doxorubicin 10 mg/kg, then vehicle or GCV 25 mg/kg daily for 7 days; FIG. 10
Experimental: as §1
Skin biopsies were collected and measured for abundance of senescent cell biomarkers (p16INK4a and mRFP mRNAs).

senescent cells [3] = assay: Detection and clearance of senescent cells by rLUC bioluminescence in irradiated p16-3MR mice; type: in vivo, mouse; settings: 7 Gy X-ray, after three months GCV 25 mg/kg, lung tissue, FIG. 1A
Experimental: Briefly, a group of p16-3MR transgenic mice were exposed to whole body ionizing radiation (7 Gy X-ray) and a control group of p16-3MR transgenic mice were mock-irradiated. After three months, the mice were treated with GCV (25 mg/kg) or vehicle only, and then at least two weeks later bioluminescence in tissues was examined after administering the rLUC substrate.

[4] = Behavior metrics in p16-3MR mice bearing MMTV-PymT tumors; type: in vivo, mouse
Experimental: (§2) The MMTV-PymT tumor cells (5×10^5 cells) were injected into a mammary fat pad of each mouse. Small primary tumors formed over a period of one week. Then doxorubicin (DOXO) at 10 mg/kg or vehicle only (PBS) was administered once at Day 7. Beginning three days after mice received DOXO, GCV was then administered daily for five days intraperitoneally at 25 mg/kg, or vehicle only was administered. Four different treatment groups of mice (7 mice per group) included (1) no doxorubicin (vehicle), no GCV (vehicle); (2) doxorubicin, no GCV; (3) no doxorubicin, GCV; and (4) doxorubicin, GCV. Bioluminescence in tissues was examined (after administering the firefly luciferase (fLUC) substrate) to monitor tumor formation (see FIG. 14).
(§3) Mice were housed in metabolic cages (Promethion, Sable Systems International, Las Vegas, Nev.) for a period of 4 days to monitor food consumption, water consumption, body mass, spontaneous activity and behavior, voluntary exercise, oxygen consumption, and carbon dioxide production. Three days after GCV treatment, animals were monitored for three nights, and the following nocturnal measurements were obtained: VO2 (mL/min); VCO2 (mL/min); food uptake (g); water uptake (g); Kcal/hr; and wheel run distance (m). The data represent the average of the three nocturnal measurements.
Behavior of animals treated doxorubicin or doxorubicin and GCV was assessed by several criteria accepted in the art as behavior metrics.

[5] = tested on: p16INK4a, IL-6, MMP-3, mRFP expression; assay: RNA expression of SASP biomarkers and mRFP reporter after irradiation and GCV; type: in vivo, mouse
B16 mouse melanoma cells [6] = assay: B16 melanoma tail-vein engraftment in irradiated p16-3MR mice (primary tumors and metastases); type: in vivo
Experimental: Briefly, 10^6 B16 mouse melanoma cells, a highly aggressive cell line that is syngeneic with p16-3MR transgenic mice (C57B16 background), that express firefly luciferase (fLUC, to enable their detection by bioluminescence) were injected into the tail vein of the p16-3MR transgenic mice three months after being either mock irradiated or irradiated, as described in Example 2. B16 mouse melanoma cells first colonize the lung, where they form primary tumors approximately two weeks after injection, and thereafter metastasize to distal tissues to form secondary tumors in, for example, the pancreas, liver and visceral fat. The biolumninescence markers, fLUC and rLUC are distinguishable because the enzymes use different substrates.
As nodules are difficult to count in fat tissue, metastatic cells were represented as an estimated % of total area of fat.

senescent cells [7] = assay: Doxorubicin-induced senescent cells in tissues of p16-3MR mice (mRFP and p16INK4a mRNA); type: in vivo, mouse; settings: doxorubicin 10 mg/kg
Text: Similar results were observed when the senescent cell accumulation was induced with the chemotherapeutic agent, doxorubicin. […] Various tissues were isolated (liver, heart, lung, kidney, and spleen) and measured for abundance of mRNAs encoding mRFP and p16INK4a as markers for senescent cells (see FIGS. 9A and 9B, respectively).

[8] = Behavior metrics in p16-3MR mice not injected with tumor cells; type: in vivo, mouse
Experimental: (§4) Groups of p16-3MR transgenic mice (5 mice per group) were treated once with doxorubicin (10 mg/kg) or vehicle only as described above. Three days later, GCV was administered 5× daily intraperitoneally at 25 mg/kg, or vehicle only was administered. Three different treatment groups of mice included (1) untreated (NT); (2) doxorubicin, no GCV (DOXO+PBS); (3) doxorubicin and GCV (DOXO+GCV). Mice were housed in metabolic cages for 5-8 days and monitored as described above.

[9] = Metabolic cage measurements in p16-3MR mice bearing MMTV-PymT tumors; type: in vivo, mouse; settings: MMTV-PymT tumor mice; DOXO 10 mg/kg Day 7, GCV 25 mg/kg i.p. daily 5 days; average of three nocturnal measurements
Experimental: as §2, §3

[10] = Metabolic cage measurements in p16-3MR mice not injected with tumor cells; type: in vivo, mouse; settings: doxorubicin 10 mg/kg once, GCV 25 mg/kg i.p. 5x daily
Experimental: as §4

[11] = GCV, fifteen days after B16 injection, FIG. 2C
[12] = MMTV-PymT tumor mice, 28 days after injection with tumor cells

CC[C@H](C(=O)N1CCCC[C@H]1C(=O)O[C@H](CCc1ccc(OC)c(OC)c1)c1cccc(OCC(=O)NCC(CNC(=O)COc2cccc([C@@H](CCc3ccc(OC)c(OC)c3)OC(=O)[C@@H]3CCCCN3C(=O)[C@@H](CC)c3cc(OC)c(OC)c(OC)c3)c2)CN(C)C)c1)c1cc(OC)c(OC)c(OC)c1 [AP20187]
tumor numbers (tumor multiplicity in lungs) [1]: significantly reduced

Nc1nc(O)c2ncn(COC(CO)CO)c2n1 [GCV, ganciclovir]
tumor growth / primary tumors (B16 bioluminescence) (B16 mouse melanoma cells [2]; doxorubicin 10 mg/kg): much smaller primary tumors
tumor diameters (tumor sizes) (B16 mouse melanoma cells [2]; doxorubicin 10 mg/kg): smaller tumor sizes
size of B16 melanoma tumors (B16 mouse melanoma cells [2]; mice pre-treated with doxorubicin 10 mg/kg, GCV 25 mg/kg daily for 7 days): substantially reduced the size
senescence in skin biopsies measured by p16INK4a and mRFP expression (p16INK4a and mRFP mRNAs): low levels of p16INK4a and mRFP expression
rLUC expression levels (bioluminescence in tissues) (senescent cells [3]): comparable to unirradiated mice
active behaviors (WHEEL, LLNGE, SLNGE) ([4]; tumor model animals treated with GCV after doxorubicin, vs doxorubicin only): significantly more active behaviors
p16INK4a (p16), IL-6, MMP-3 and mRFP expression levels ([5]; irradiated p16-3MR mice treated with GCV, FIG. 1B): returned p16INK4a (p16), IL-6, MMP-3 and mRFP expression levels to those found in the unirradiated control mice
effect on expression levels in wild-type mice ([5]; wild-type, non-transgenic C57B16 mice, data not shown): no detectable effect
Detection of metastatic B16 melanoma cells: Fat (estimated % of total area of fat) (B16 mouse melanoma cells [6]; 18 days after injection): 25%
Detection of metastatic B16 melanoma cells: Liver (luminescent metastatic nodules) (B16 mouse melanoma cells [6]; 18 days after injection): 7 ± 3.6 nodules
Detection of metastatic B16 melanoma cells: Lung (luminescent nodules) (B16 mouse melanoma cells [6]; 18 days after injection): TNTC
levels of B16 cells as detected by luminescence (B16 mouse melanoma cells [6]; GCV, day 18, FIG. 8): still showed relatively low levels of B16 cells
primary lung tumors (B16 mouse melanoma cells [6]; GCV, eighteen days after injection, FIG. 3A): large primary lung tumors were evident
metastases in distal organs (liver and fat tissue) (B16 mouse melanoma cells [6]; GCV, eighteen days after injection, FIG. 3A, 3C): almost devoid of metastases
metastases (B16 mouse melanoma cells [6]; [11]): many fewer metastases
primary tumors (B16 mouse melanoma cells [6]; [11]): much smaller primary tumors
levels of B16 cells as detected by luminescence (B16 mouse melanoma cells [6]; GCV, fifteen days after injection, FIG. 8): relatively low levels of B16 cells

COc1cccc2c1C(=O)c1c(O)c3c(c(O)c1C2=O)C[C@@](O)(C(=O)CO)C[C@@H]3O[C@H]1C[C@H](N)[C@H](O)[C@H](C)O1 [doxorubicin]
growth of B16 melanoma cells injected subcutaneously (B16 mouse melanoma cells [2]; doxorubicin 10 mg/kg): stimulated the growth
tumor growth / primary tumors (B16 bioluminescence) (B16 mouse melanoma cells [2]; doxorubicin 10 mg/kg): increased
tumor diameters (tumor sizes) (B16 mouse melanoma cells [2]; doxorubicin 10 mg/kg): increased tumor sizes
senescence in skin biopsies measured by p16INK4a and mRFP expression (p16INK4a and mRFP mRNAs): increased senescence
presence of senescent cells in tissues (senescent cells [7]; p16-3MR mice): induced the persistent presence of senescent cells
levels of mRFP and p16INK4a mRNA in tissues (senescent cells [7]; liver, heart, lung, kidney, spleen, vs untreated control mice, FIGS. 9A, 9B): higher levels of mRFP and p16INK4a in all tissues
IHOME [8]: 1.86 ± 1.66
LLNGE [8]: 61.46 ± 18.11
SLNGE [8]: 6.94 ± 2.51
THOME [8]: 1.15 ± 1.12
WHEEL [8]: 9.58 ± 13.12
Kcal/hr [9]: 0.39 ± 0.1 kcal/h
VCO2 [9]: 1.19 ± 0.35 mL/min
VO2 [9]: 1.35 ± 0.33 mL/min
Wheel run distance [9]: 3315 ± 1958 m
IHOME: Entered habitat (stable mass reading) [4, 12]: 4.86 ± 12.3
LLNGE: Long lounge (>60 sec, no non-XY sensor interactions) [4, 12]: 72.06 ± 24.05
SLNGE: Short lounge (5-60 sec, no non-XY sensor interactions) [4, 12]: 5.34 ± 3.64
THOME: Interaction with habitat (no stable mass reading) [4, 12]: 1.16 ± 2.54
WHEEL: Interaction with wheel (>=1 revolution) [4, 12]: 7.09 ± 10.84
Kcal/hr [10]: 0.34 ± 0.1 kcal/h
VCO2 [10]: 1.1 ± 0.36 mL/min
VO2 [10]: 1.14 ± 0.34 mL/min
Wheel run distance (total m) [10]: 2708 ± 1867 m
